#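 Compound exposure: 48 hours, 5 concentrations, 96-well plates. The concentration for 50% growth inhibition is given as GI50. TGI: concentration producing complete growth inhibition.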
# Legend:
# Test in all cases: NCI anticancer screen, dose series, 48 h
# UACC-257 melanoma = tested on: UACC-257 melanoma
# IGROV1 ovarian = tested on: IGROV1 ovarian
# UO-31 renal = tested on: UO-31 renal
# HCC-2998 colon = tested on: HCC-2998 colon
# SN12C renal = tested on: SN12C renal
# HCT-15 colon = tested on: HCT-15 colon
# SR leukemia = tested on: SR leukemia
# SNB-75 CNS = tested on: SNB-75 CNS
# COLO 205 colon = tested on: COLO 205 colon
# RXF 393 renal = tested on: RXF 393 renal
# MOLT-4 leukemia = tested on: MOLT-4 leukemia
# OVCAR-8 ovarian = tested on: OVCAR-8 ovarian
# OVCAR-4 ovarian = tested on: OVCAR-4 ovarian
# HOP-62 NSCLC = tested on: HOP-62 NSCLC
# HL-60(TB) leukemia = tested on: HL-60(TB) leukemia
# KM12 colon = tested on: KM12 colon
# CAKI-1 renal = tested on: CAKI-1 renal
# A549 NSCLC = tested on: A549 NSCLC
# MALME-3M melanoma = tested on: MALME-3M melanoma
# TK-10 renal = tested on: TK-10 renal
# EKVX NSCLC = tested on: EKVX NSCLC
# SK-MEL-2 melanoma = tested on: SK-MEL-2 melanoma
# SF-295 CNS = tested on: SF-295 CNS
# NCI-H226 lung = tested on: NCI-H226 lung
# NCI-H23 lung = tested on: NCI-H23 lung
# HT29 colon = tested on: HT29 colon
# RPMI-8226 leukemia = tested on: RPMI-8226 leukemia
# PC-3 prostate = tested on: PC-3 prostate
# HOP-92 NSCLC = tested on: HOP-92 NSCLC
# NCI-H460 lung = tested on: NCI-H460 lung
# MCF7 breast = tested on: MCF7 breast
# OVCAR-3 ovarian = tested on: OVCAR-3 ovarian
# SW-620 colon = tested on: SW-620 colon
# SNB-19 CNS = tested on: SNB-19 CNS
# T-47D breast = tested on: T-47D breast
# SK-MEL-28 melanoma = tested on: SK-MEL-28 melanoma
# BT-549 breast = tested on: BT-549 breast
# SF-268 CNS = tested on: SF-268 CNS
# OVCAR-5 ovarian = tested on: OVCAR-5 ovarian
# NCI/ADR-RES ovarian = tested on: NCI/ADR-RES ovarian
# SF-539 CNS = tested on: SF-539 CNS
# MDA-MB-435 = tested on: MDA-MB-435
# A498 renal = tested on: A498 renal
# 786-0 renal = tested on: 786-0 renal
# UACC-62 melanoma = tested on: UACC-62 melanoma
# M14 melanoma = tested on: M14 melanoma
# CCRF-CEM leukemia = tested on: CCRF-CEM leukemia
# SK-OV-3 ovarian = tested on: SK-OV-3 ovarian
# MDA-MB-231 breast = tested on: MDA-MB-231 breast
# DU-145 prostate = tested on: DU-145 prostate
# SK-MEL-5 melanoma = tested on: SK-MEL-5 melanoma
# NCI-H522 lung = tested on: NCI-H522 lung
# U251 CNS = tested on: U251 CNS
# ACHN renal = tested on: ACHN renal
# LOX IMVI melanoma = tested on: LOX IMVI melanoma
# HCT-116 colon = tested on: HCT-116 colon
# K-562 leukemia = tested on: K-562 leukemia
# HS 578T breast = tested on: HS 578T breast
smiles,measurement,setting,value
O=C(N/N=C\c1ccc([N+](=O)[O-])cc1)c1ccc2nc(-c3ccc(Br)cc3)[nH]c2c1,GI50,UACC-257 melanoma,1.26 µM
same,TGI,UACC-257 melanoma,6.35 µM
same,GI50,IGROV1 ovarian,1.61 µM
same,TGI,IGROV1 ovarian,14.8 µM
same,GI50,UO-31 renal,2.16 µM
same,TGI,UO-31 renal,> 51.1 µM
same,GI50,HCC-2998 colon,1.3 µM
same,TGI,HCC-2998 colon,3.96 µM
same,GI50,SN12C renal,1.22 µM
same,TGI,SN12C renal,14.1 µM
same,GI50,HCT-15 colon,1.22 µM
same,TGI,HCT-15 colon,14.8 µM
same,GI50,SR leukemia,0.891 µM
same,TGI,SR leukemia,4.55 µM
same,GI50,SNB-75 CNS,3.79 µM
same,TGI,SNB-75 CNS,20 µM
same,GI50,COLO 205 colon,0.842 µM
same,TGI,COLO 205 colon,2.1 µM
same,GI50,RXF 393 renal,1.13 µM
same,TGI,RXF 393 renal,3.79 µM
same,GI50,MOLT-4 leukemia,0.912 µM
same,TGI,MOLT-4 leukemia,4.39 µM
same,GI50,OVCAR-8 ovarian,0.979 µM
same,TGI,OVCAR-8 ovarian,4.62 µM
same,GI50,OVCAR-4 ovarian,1.45 µM
same,TGI,OVCAR-4 ovarian,> 43 µM
same,GI50,HOP-62 NSCLC,1.9 µM
same,TGI,HOP-62 NSCLC,10.5 µM
same,GI50,HL-60(TB) leukemia,0.801 µM
same,TGI,HL-60(TB) leukemia,4.96 µM
same,GI50,KM12 colon,1.2 µM
same,TGI,KM12 colon,9.3 µM
same,GI50,CAKI-1 renal,1.67 µM
same,TGI,CAKI-1 renal,22.6 µM
same,GI50,A549 NSCLC,1.61 µM
same,TGI,A549 NSCLC,> 31.2 µM
same,GI50,MALME-3M melanoma,1.27 µM
same,TGI,MALME-3M melanoma,4.63 µM
same,GI50,TK-10 renal,2.96 µM
same,TGI,TK-10 renal,26 µM
same,GI50,EKVX NSCLC,1.81 µM
same,TGI,EKVX NSCLC,97.5 µM
same,GI50,SK-MEL-2 melanoma,3.99 µM
same,TGI,SK-MEL-2 melanoma,16.6 µM
same,GI50,SF-295 CNS,1.3 µM
same,TGI,SF-295 CNS,13.4 µM
same,GI50,NCI-H226 lung,2.58 µM
same,TGI,NCI-H226 lung,> 54.7 µM
same,GI50,NCI-H23 lung,0.398 µM
same,TGI,NCI-H23 lung,3.16 µM
same,GI50,HT29 colon,0.939 µM
same,TGI,HT29 colon,2.68 µM
same,GI50,RPMI-8226 leukemia,0.875 µM
same,TGI,RPMI-8226 leukemia,2.88 µM
same,GI50,PC-3 prostate,1.3 µM
same,TGI,PC-3 prostate,9.4 µM
same,GI50,HOP-92 NSCLC,2.58 µM
same,TGI,HOP-92 NSCLC,9.26 µM
same,GI50,NCI-H460 lung,0.914 µM
same,TGI,NCI-H460 lung,2.53 µM
same,GI50,MCF7 breast,0.704 µM
same,TGI,MCF7 breast,2.26 µM
same,GI50,OVCAR-3 ovarian,3.08 µM
same,TGI,OVCAR-3 ovarian,7.95 µM
same,GI50,SW-620 colon,1.27 µM
same,TGI,SW-620 colon,4.95 µM
same,GI50,SNB-19 CNS,2.29 µM
same,TGI,SNB-19 CNS,39.6 µM
same,GI50,T-47D breast,0.955 µM
same,TGI,T-47D breast,3.28 µM
same,GI50,SK-MEL-28 melanoma,1.9 µM
same,TGI,SK-MEL-28 melanoma,11.7 µM
same,GI50,BT-549 breast,0.911 µM
same,TGI,BT-549 breast,3.4 µM
same,GI50,SF-268 CNS,3.87 µM
same,TGI,SF-268 CNS,96.9 µM
same,GI50,OVCAR-5 ovarian,2.63 µM
same,TGI,OVCAR-5 ovarian,> 58.8 µM
same,GI50,NCI/ADR-RES ovarian,18.5 µM
same,TGI,NCI/ADR-RES ovarian,> 100 µM
same,GI50,SF-539 CNS,1.92 µM
same,TGI,SF-539 CNS,7.9 µM
same,GI50,MDA-MB-435,1.42 µM
same,TGI,MDA-MB-435,5.06 µM
same,GI50,A498 renal,1.62 µM
same,TGI,A498 renal,8.34 µM
same,GI50,786-0 renal,2.92 µM
same,TGI,786-0 renal,13 µM
same,GI50,UACC-62 melanoma,1.61 µM
same,TGI,UACC-62 melanoma,14.5 µM
same,GI50,M14 melanoma,1.4 µM
same,TGI,M14 melanoma,6.69 µM
same,GI50,CCRF-CEM leukemia,1.34 µM
same,TGI,CCRF-CEM leukemia,8.01 µM
same,GI50,SK-OV-3 ovarian,2.9 µM
same,TGI,SK-OV-3 ovarian,> 70.7 µM
same,GI50,MDA-MB-231 breast,2.93 µM
same,TGI,MDA-MB-231 breast,12 µM
same,GI50,DU-145 prostate,1.63 µM
same,TGI,DU-145 prostate,> 54.2 µM
same,GI50,SK-MEL-5 melanoma,0.912 µM
same,TGI,SK-MEL-5 melanoma,2.88 µM
same,GI50,NCI-H522 lung,0.903 µM
same,TGI,NCI-H522 lung,2.92 µM
same,GI50,U251 CNS,1.11 µM
same,TGI,U251 CNS,3.41 µM
same,GI50,ACHN renal,1.92 µM
same,TGI,ACHN renal,> 51.7 µM
same,GI50,LOX IMVI melanoma,0.978 µM
same,TGI,LOX IMVI melanoma,3.14 µM
same,GI50,HCT-116 colon,1.02 µM
same,TGI,HCT-116 colon,3.68 µM
same,GI50,K-562 leukemia,0.882 µM
same,TGI,K-562 leukemia,4.18 µM
same,GI50,HS 578T breast,1.59 µM
same,TGI,HS 578T breast,17 µM
